From the NIST ThermoML archive (doi:10.1016/j.jct.2009.03.009)

Experiments:
[1] = refractive index (Na D-line) (dimensionless); xn = mol fraction of the nth substance listed; details: 313.15 K, 101 kPa, Liquid, Standard Abbe refractometry
[2] = xn = mol fraction of the nth substance listed; details: 313.15 K, 101 kPa, Liquid; for speed of sound: Sing-around technique in a fixed-path interferometer; for mass density: Vibrating tube method

c1ccccc1 [benzene] + CCCCCC
Details	mass density, [2] [kg/m3]	refractive index, [1]	speed of sound, [2] [m/s]
x2 = 0	857.4	1.48752	1230
x2 = 0.0378	845.3	1.48075	1214.8
x2 = 0.1009	825.8	1.46941	1191.1
x2 = 0.1986	797.9	1.45313	1158.5
x2 = 0.2979	772.2	1.43818	1129.8
x2 = 0.402	747.7	1.42416	1104.3
x2 = 0.6024	706.3	1.40043	1063.9
x2 = 0.7014	688.2	1.39011	1047.7
x2 = 0.801	671.4	1.38019	1033.2
x2 = 0.9083	654.9	1.37148	1020.2
x2 = 0.9464	649.2	1.36837	1015.9

Cc1ccccc1 [toluene] + CCCCCC
x2 = 0
Details	mass density [kg/m3]	refractive index	speed of sound [m/s]
[1]	–	1.48464	–
[2]	848	–	1240.7

CCCCCC [hexane] + Cc1ccccc1
Details	mass density, [2] [kg/m3]	refractive index, [1]	speed of sound, [2] [m/s]
x1 = 0.1032	822.9	1.47028	1208.5
x1 = 0.198	800.5	1.4571	1180.8
x1 = 0.2997	777.5	1.44367	1153.5
x1 = 0.4027	755.1	1.43045	1127.5
x1 = 0.5005	734.6	1.41844	1104.6
x1 = 0.5998	714.7	1.40685	1083.1
x1 = 0.6987	695.5	1.3956	1063.3
x1 = 0.7984	677	1.38476	1044.5
x1 = 0.9042	658.1	1.37387	1026.3
x1 = 1	641.4	1.36411	1010.3

CCc1ccccc1 [ethylbenzene] + CCCCCC
Details	mass density, [2] [kg/m3]	refractive index, [1]	speed of sound, [2] [m/s]
x2 = 0	849.2	1.48426	1256.9
x2 = 0.0465	839.4	1.47929	1243.8
x2 = 0.0771	832.8	1.47548	1235
x2 = 0.201	806.5	1.46016	1200.8
x2 = 0.3015	785.2	1.44756	1173.9
x2 = 0.399	764.7	1.43582	1148.5
x2 = 0.5092	741.7	1.42251	1121.1
x2 = 0.601	722.6	1.41135	1098.9
x2 = 0.7012	702	1.39924	1075.7
x2 = 0.7999	681.9	1.38766	1054.1
x2 = 0.8993	661.7	1.3759	1031.8
x2 = 0.9534	650.8	1.36962	1020.3

c1ccccc1 [benzene] + CCCCCCCC
x2 = 0
Details	mass density [kg/m3]	refractive index	speed of sound [m/s]
[1]	–	1.48752	–
[2]	857.4	–	1230

CCCCCCCC [octane] + Cc1ccccc1
Details	mass density, [2] [kg/m3]	refractive index, [1]	speed of sound, [2] [m/s]
x1 = 0.0542	834.6	1.47708	1226.2
x1 = 0.1022	823.4	1.46982	1214.8
x1 = 0.2014	802	1.45667	1194.1
x1 = 0.3037	782	1.44463	1176.2
x1 = 0.3965	765.5	1.43362	1162.3
x1 = 0.4983	749.1	1.42473	1149.7
x1 = 0.5986	734.3	1.41567	1139.1
x1 = 0.7016	720.5	1.4075	1130
x1 = 0.8007	708.4	1.40046	1122.5
x1 = 0.902	696.6	1.39376	1116.1
x1 = 0.9493	691.6	1.39079	1113.1
x1 = 1	686.3	1.38769	1110.6

CCCCCC [hexane] + CCc1ccccc1
x1 = 1
Details	mass density [kg/m3]	refractive index	speed of sound [m/s]
[1]	–	1.36411	–
[2]	641.4	–	1010.3

CCCCCCC [heptane] + Cc1ccccc1
x1 = 1
Details	mass density [kg/m3]	refractive index	speed of sound [m/s]
[1]	–	1.37737	–
[2]	666.6	–	1066.5
